Experimental data taken from patent publication US20230257366A1, “SULFUR-CONTAINING ISOINDOLINE DERIVATIVE, AND PREPARATION METHOD THEREFOR AND MEDICAL USE THEREOF” (JIANGSU HENGRUI PHARMACEUTICALS CO., LTD., priority 2020, published 2023).

Columns and labels:
[1] = test system: NCI-H929 xenograft tumor; test: Pharmacodynamic test: NCI-H929 xenograft tumor in CB-17 SCID mice; format: in vivo
Procedure: This experiment was performed to evaluate the inhibition effect of the compound of Example 6 and the control example CC-92480 on the growth of human multiple myeloma cell NCI-H929 xenograft tumor in CB-17 SCID mice.
Compound of Example 6; control example CC-92480 (see compound 2 of WO2019014100A1, synthesized according to the method disclosed therein)
Solutions of the compound of Example 6 and the control example CC-92480 were prepared with 5% DMSO+20% PEG400+70% (10% TPGS)+5% (1% HPMC K100LV).
Thirty CB-17 SCID female mice, purchased from Beijing Vital River Laboratory Animal Technology Co., Ltd. (certificate No. 20170011006049, SCXK (Shanghai) 2017-0011), weighing about 19 g at the time of purchase, were bred at 5 mice/cage (in 12/12 hour light/dark cycle, at a constant temperature of 23±1° C. and humidity of 50%-60%) and had free access to food and water.
After adaptive feeding, the CB-17 SCID mice were grouped as follows:
NCI-H929 cells in a logarithmic growth phase were inoculated subcutaneously into the right flank of 30 female CB-17 SCID mice at 5×10^6 cells/mouse/100 μL (containing 50 μL of Matrigel). After 10 days, when the tumor volume of the tumor-bearing mice reached about 200 mm^3, the mice were randomly divided into 3 groups according to the tumor volume and body weight: vehicle control group, CC-92480-1 mpk, compound of Example 6-1 mpk, with 7 mice in each group. The day of grouping was set as Day 0 (D0), and intragastric administration was performed once a day for 11 days (Table 2). For the tumor-bearing mice, the tumor volume was measured with a vernier caliper and the body weight was measured with a balance twice a week, and the data were recorded.
All data were plotted and statistically analyzed using Excel and GraphPad Prism 5 software.
The tumor volume (V) was calculated as follows: V=½×a×b^2, where a and b represent length and width, respectively.
The relative tumor proliferation rate T/C (%)=(T−T0)/(C−C0)×100(%), where T and C are the tumor volume of animals at the end of the experiment in the treatment group and control group, respectively; T0 and C0 are the tumor volume of animals at the beginning of the experiment in the treatment group and control group, respectively.
Tumor growth inhibition TGI (%)=1−T/C (%), and when TGI (%) exceeds 100%, no specific value will be shown, and it is expressed only by >100%.
Tumor regression (%)=[(T0−T)/T0]×100(%).

[2] = Pharmacokinetic evaluation in mice after intragastric administration (LC/MS/MS); format: in vivo; settings: female, mouse, in vivo, po, 2 mg/kg
Procedure: The drug concentration in the plasma of the test animals (mice) at different time points after intragastric administration of the compound of Example 6 and the control example CC-92480 was determined by an LC/MS/MS method. The pharmacokinetic behavior of the compound of the present disclosure in mice was studied and its pharmacokinetic profile was evaluated.
(§1) Compound of Example 6 and control example CC-92480.
Eighteen mice, female, purchased from Beijing Vital River Laboratory Animal Technology Co., Ltd., with animal production license number of SCXK (Shanghai) 2017-0005.
A certain amount of compound of Example 6 was weighed, dissolved by adding 5% by volume of DMSO and 5% Tween 80 (Shanghai Titan Scientific Co., Ltd.), and then prepared into a 0.1 mg/mL clear solution by adding 90% normal saline.
A certain amount of the control example CC-92480 was weighed, dissolved by adding 5% by volume of DMSO and 5% Tween 80 (Shanghai Titan Scientific Co., Ltd.), and then prepared into a 0.1 mg/mL clear solution by adding 90% normal saline.
Nine mice were intragastrically administered with the compound of Example 6 at a dose of 2 mg/kg and at a volume of 0.2 mL/10 g.
Nine mice were intragastrically administered with the control example CC-92480 at a dose of 2 mg/kg and at a volume of 0.2 mL/10 g.
Mice were intragastrically administered with the compound of Example 6 and the control example CC-92480, and 0.2 mL of blood was collected before the administration and 0.25 h, 0.5 h, 1.0 h, 2.0 h, 4.0 h, 6.0 h, 8.0 h, 11.0 h and 24.0 h after the administration (3 animals at each time point), placed in EDTA-K2 anticoagulation tubes, and centrifuged at 10,000 rpm for 1 min(4° C.). Plasma was separated within 1 h, and stored at −20° C. for testing. The process from blood collection to centrifugation was performed under an ice bath.
The content of the test compounds at different concentrations in mouse plasma after the administration was determined: 25 μL of mouse plasma at each time point after the administration was mixed with 50 μL (100 ng/mL) of internal standard solution camptothecin (National Institutes for Drug Control) and 175 μL of acetonitrile. The mixture was vortexed for 5 min and centrifuged for 10 min (3700 rpm/min), and 1 μL of the supernatant of the plasma sample was taken for LC/MS/MS assay (API4000 triple quadrupole tandem mass spectrometer, Applied Biosystems, USA; Shimadzu, LC-30AD ultra high performance liquid chromatography system, Shimadzu, Japan).

[3] = Plasma stability in monkey plasma (LC-MS/MS); format: in vitro ADME; settings: monkey, plasma
Procedure: The stability of the compound of Example 6 and the control example CC-92480 after incubation in cryopreserved monkey plasma at 37° C. for 0 min, 15 min, 30 min, 60 min, 120 min, 180 min and 240 min was determined quantitatively by LC-MS/MS.
as §1
Monkey plasma was purchased from Shanghai Medicilon Inc.
A certain amount of the compound of Example 6 was weighed and prepared with DMSO to obtain a 30 mM stock solution. A certain volume of the stock solution was diluted into a solution I at a concentration of 1600 μM with DMSO; and a certain volume of the solution I at 1600 μM was diluted with 50% methanol to obtain a working solution II at a concentration of 16 μM. A 30 mM stock solution, a 1600 μM solution I′, and a 16 μM working solution II′ of CC-92480 were prepared as described above.
5 μL of the working solutions at 16 μM of the compound of Example 6 and the control example CC-92480 were each added to 75 μL of plasma to make the final concentration of the compounds of 1 μM. The samples were incubated under a 37° C. water bath for 0 min, 15 min, 30 min, 60 min, 90 min, 120 min, and 180 min. […] The supernatant was analyzed by LC-MS with a sample injection volume of 2 μL.

[4] = test system: NCI-H929 cells; test: NCI-H929 proliferation experiment (CellTiter-Glo, 5 days); format: cell-based; settings: Homo sapiens, 120 h, 5 days incubation, read-out: IC50 values for the inhibition of proliferation of NCI-H929 cells
Procedure: The following method was used to determine the inhibitory activity of the compounds of the present disclosure on the proliferation of NCI-H929 cells. The experimental method was briefly described as follows.
NCI-H929 cells (ATCC, CRL-9068) were cultured in a complete medium (RPMI 1640 medium (Hyclone, SH30809.01) containing 10% fetal bovine serum (Corning, 35-076-CV) and 0.05 mM 2-mercaptoethanol (Sigma, M3148)). On the first day of the experiment, NCI-H929 cells were seeded in a 96-well plate at a density of 6000 cells/well with a complete medium to form 100 μL of cell suspension per well, and 10 μL of test compound prepared in a complete medium and diluted in a gradient was added to each well. The compound was firstly dissolved in DMSO, with an initial concentration of 10 mM, and then subjected to serial dilution at a 5-fold concentration gradient for a total of 9 concentration points, with a blank control of 100% DMSO. Another 5 μL of the compound dissolved in DMSO was added to 95 μL of complete medium, i.e., the compound was diluted 20-fold with the complete medium. Finally the compound diluted in the complete medium at 10 μL/well was added to the cell suspension, wherein the final concentrations of the compound were 9 concentration points obtained by 5-fold gradient dilution starting from 50 μM. A blank control containing 0.5% DMSO was set. The plate was incubated in a cell incubator at 37° C. with 5% CO2 for 5 days. On the sixth day, the 96-well cell culture plate was taken out, added with a CellTiter-Glo® luminescent cell activity detect reagent (Promega, G7573) at 50 μL/well, left to stand at room temperature for 10 min, and read for the luminescence signal values using a multi-mode microplate reader (PerkinElmer, EnVision 2015). IC50 values for the inhibitory activity of the compounds were calculated using Graphpad Prism software, with the results shown in Table 1.

SMILES: N#Cc1ccc(N2CCN(Cc3ccc(COc4cccc5c4CN([C@H]4CCC(=O)NC4=O)C5=O)cc3)CC2)c(F)c1 [CC-92480, reference compound]
- Mean tumor volume D0 ([1]; 1 mg/kg qd, baseline at day of grouping (D0), n=7): 157.2 mm^3
- Number of remaining animals/group ([1]; 1 mg/kg qd/11d po): 7/7
- % tumor regression D11 ([1]; 1 mg/kg qd/11d po (i.g.), D11): 34%
- Mean tumor volume D11 ([1]; 1 mg/kg qd/11d po (i.g.), D11, n=7): 103.6 mm^3
- AUC [2]: 1940 ng·h/mL
- CL/F [2]: 17.2 mL/min/kg
- Cmax [2]: 692 ng/mL
- MRT [2]: 2.3 h
- Vd/F [2]: 1.96 L/kg
- half-life [2]: 1.3 h
- half-life at 1 µM [3]: 3.32 h

SMILES: Cc1nc(SC2CCN(c3ccc(C#N)cc3F)CC2)ccc1COc1cccc2c1CN([C@H]1CCC(=O)NC1=O)C2=O [Compound 13, (S)-4-(4-((5-(((2-(2,6-dioxopiperidin-3-yl)-1-oxoisoindolin-4-yl)oxy)methyl)-6-methylpyridin-2-yl)thio)piperidin-1-yl)-3-fluorobenzonitrile]
- IC50 [4]: 1.78 nM

SMILES: N#Cc1ccc(N2CCC(Sc3ccc(COc4cccc5c4CN([C@H]4CCC(=O)NC4=O)C5=O)cc3Cl)CC2)c(F)c1 [Compound 14, (S)-4-(4-((2-chloro-4-(((2-(2,6-dioxopiperidin-3-yl)-1-oxoisoindolin-4-yl)oxy)methyl)phenyl)thio)piperidin-1-yl)-3-fluorobenzonitrile]
- IC50 [4]: 0.27 nM

SMILES: N#Cc1ccc(N2CCC(Sc3ccc(COc4cccc5c4CN([C@H]4CCC(=O)NC4=O)C5=O)cn3)C2)c(F)c1 (stereo partly drawn) [Compound 15, 4-(3-((5-(((2-((S)-2,6-dioxopiperidin-3-yl)-1-oxoisoindolin-4-yl)oxy)methyl)pyridin-2-yl)thio)pyrrolidin-1-yl)-3-fluorobenzonitrile]
- IC50 [4]: 0.75 nM

SMILES: N#Cc1ccc(N2CC(Sc3ccc(COc4cccc5c4CN([C@H]4CCC(=O)NC4=O)C5=O)cc3)C2)c(F)c1 [Compound 16, (S)-4-(3-((4-(((2-(2,6-dioxopiperidin-3-yl)-1-oxoisoindolin-4-yl)oxy)methyl)phenyl)thio)azetidin-1-yl)-3-fluorobenzonitrile]
- IC50 [4]: 1.13 nM

SMILES: N#Cc1ccc(N2CCC(Sc3ccc(COc4cccc5c4CN([C@H]4CCC(=O)NC4=O)C5=O)c(F)n3)CC2)c(F)c1 [Compound 17, (S)-4-(4-((5-(((2-(2,6-dioxopiperidin-3-yl)-1-oxoisoindolin-4-yl)oxy)methyl)-6-fluoropyridin-2-yl)thio)piperidin-1-yl)-3-fluorobenzonitrile]
- IC50 [4]: 0.21 nM

SMILES: N#Cc1ccc(N2CCC(Sc3cc(F)c(COc4cccc5c4CN([C@H]4CCC(=O)NC4=O)C5=O)c(F)c3)CC2)c(F)c1 [Compound 18, (S)-4-(4-((4-(((2-(2,6-dioxopiperidin-3-yl)-1-oxoisoindolin-4-yl)oxy)methyl)-3,5-difluorophenyl)thio)piperidin-1-yl)-3-fluorobenzonitrile]
- IC50 [4]: 0.34 nM
